Assay results published in patent publication EP1285920A1, “C10 Ester sustituted taxanes as antitumor agents” (Florida State University Research Foundation, Inc., priority 2001, dated 2003).
Like-named read-outs stand apart in the source and are kept apart here.

What was measured:
[1] = system: blood cell populations; assay: Effect of oral treatment on blood cell populations and body weight in the MX-1 study (Example 22); type: in vivo, nu/nu mice; conditions: mg/kg: 0499 80, 0550 73, 0611 113, 0748 200
Experimental: (§1) Antitumor compounds were administered orally in a study to investigate whether such a formulation is efficacious against the MX-1 human breast carcinoma xenograft. Antitumor compound 0499 was formulated as Solution 1 in Example 6. Antitumor compound 0550 was formulated as Solution 2 in Example 6. Antitumor compound 0611 was formulated as Solution 3 in Example 6. Antitumor compound 0748 was formulated as Solution 4 in Example 6. Other antitumor compounds were formulated similarly. The compounds were prepared in a vehicle of 90% saline, 5% Cremophor, and 5% ethanol.
(§2) Female nu/nu mice (11-12 weeks of age; implanted subcutaneously with 1 mm^3 MX-1 human breast carcinoma fragments in the flank) were sorted into one control group (n=10) and four treatment (n=6) groups (group mean tumor size of 47-49 mg). The study was terminated on Day 63.
In addition to survival and tumor regression responses, the effect of treatment on blood cell populations was assessed. The major effect of these antitumor compounds on blood cell populations was a marked reduction in the neutrophil cell number. As well, monocyte depletion correlated fairly well with neutrophil reduction for each antitumor compound. […] There was a correlation between antitumor activity and reduced neutrophil count. In general, toxicity (as determined by neutrophil depletion) and weight loss correlated with efficacy. […] Importantly, the toxicities observed with the very efficacious antitumor compounds were manageable and reversible; neutrophil count and body weight rebounded from their low points in just a few days. Table 20 summarizes the weight reduction, neutrophil and monocyte measurements on Day 4, with tumor weight reduction calculated at Day 18: Table 20

[2] = system: MX-1 human breast carcinoma; type: in vivo
Experimental: as §1, §2

[3] = system: A2780 ovarian carcinoma; conditions: for Mean Score: tumor scoring system
Experimental: Dosing was initiated on Day 1. […] Taxotere was given i.v. on a qd x 1 schedule at a dose of 70 mg/kg. […] The study was terminated on Day 60. Treatment groups are detailed in Table 7.

[4] = system: NCI-H1299 (H1299) carcinoma; assay: In vivo evaluation against NCI-H1299 human lung carcinoma xenograft (i.v., Example 11)
Experimental: Antitumor compounds were formulated for an i.v. dosing regime prepared in the following vehicle: 10% ethanol, 10% Cremophor and 80% isotonic saline.
Vehicle control animals were dosed twice intravenously with half the total volume being given separated by one hour. The study was terminated on Day 60.
(§3) A complete response is obtained if the tumor is not palpable at the end of the study.
A tumor scoring system was designed to provide a more quantitative ranking of efficacy (therapeutic potential) among the antitumor agents evaluated against the different human solid tumor xenografts. Each mouse in a study was given a score of from 1 to 10 at the end of the study. The scores can be summarized as follows:
The individual score for each mouse was averaged into a mean score for each treatment group. […]
The treatment protocol for the H1299 test was identical to the SK-MES test protocol. […]

[5] = system: SKMES lung carcinoma; assay: In vivo evaluation of oral administration against SKMES human lung carcinoma xenograft (Example 21); conditions: single oral bolus Day 1
Experimental: Female Nu/Nu mice (6-8 weeks of age; implanted with 1 mm^3 SKMES lung carcinoma fragments in the flank) were sorted into treatment groups of six mice each. […] Treatments were administered as a single oral bolus on Day 1, and the study was terminated on Day 60.
as §3
The total response rate is defined as the percentage of evaluable animals (excluding deaths due to procedure or toxicity) in a group that experience complete or partial responses at the termination of the study.

[6] = Day 4, vs vehicle, single oral bolus
[7] = number of mice, single oral bolus Day 1, mg/kg: 0499 80, 0550 73, 0611 113, 0748 200, 6 mice/group, Day 63
[8] = number of mice, Taxol i.p. qd x 5, 15 mg/kg daily, 5 mice
[9] = number of mice, i.v. qd x 1 at estimated MTD (Taxol 24 mg/kg, Taxotere 70 mg/kg, 0983 72.6 mg/kg), 5 mice/group (Taxotere 6), Day 60
[10] = i.v. split dose qd x 1, six mice per group
[11] = number of mice, mg/kg: Taxol 40, 0687 228, 0503 73, 6 mice/group, Day 60

## CCC(=O)O[C@H]1C(=O)[C@@]2(C)[C@H]([C@H](OC(=O)c3ccccc3)[C@]3(O)C[C@H](OC(=O)[C@H](O)[C@H](C=C(C)C)NC(=O)OC(C)(C)C)C(C)=C1C3(C)C)[C@]1(OC(C)=O)CO[C@@H]1C[C@@H]2O [Compound 0499]
[1]; [6]
  % Reduction (Monocytes): 24.0%
  % Reduction (Neutrophils): 91.6%
[1]; Day 4, single oral bolus Day 1
  Monocytes (K/µL): 0.073 K/µL
  Neutrophils (K/µL): 0.077 K/µL
[1]; body weight, day of maximum in parentheses in the cell, single oral bolus Day 1
  Maximum Weight Loss (Day): -11.4% (7)
[2]; MX-1, single oral bolus Day 1, six mice per group (0611: five evaluable), ended Day 63
  complete tumor regressions: two
[2]; days until tumor reached 1.5 g, single oral bolus Day 1, mg/kg: 0499 80, 0550 73, 0611 113, 0748 200, 6 mice/group, terminated Day 63
  Mean Day of Survival (n): 56.6 ± 2.1 (3)
[2]; number of mice, single oral bolus Day 1, mg/kg: 0499 80, 0550 73, 0611 113, 0748 200, 6 mice/group
  Toxic Deaths: 0
[2]; [7]
  Complete Response: 2
  Partial Response: 0
  Stable Disease: 1
[2]; po, 432 h
  % Reduction (Weight): 100.0%

## CC(=O)O[C@H]1C(=O)[C@@]2(C)[C@H]([C@H](OC(=O)c3ccccc3)[C@]3(O)C[C@H](OC(=O)[C@H](O)[C@@H](NC(=O)c4ccccc4)c4ccccc4)C(C)=C1C3(C)C)[C@]1(OC(C)=O)CO[C@@H]1C[C@@H]2O [Taxol, paclitaxel, reference compound]
[3]; A2780, Taxol i.p. 15 mg/kg qd x 5 (Group 3)
  toxicity: highly toxic
[3]; A2780, Taxol i.p. 15 mg/kg qd x 5 (Group 3), five mice
  mice succumbed to drug-related side effects: four
[3]; A2780, i.v. qd x 1
  antitumor activity: moderately efficacious
  survival extension compared to Group 1 controls: 87%
[3]; A2780, i.v. qd x 1 (compounds estimated MTD; Taxol 24 mg/kg split; Taxotere 70 mg/kg), days until tumor 2.0 g, ended Day 60
  MDS: 21.9 days
[3]; A2780, i.v. qd x 1, five mice per group
  Stable Disease: One
[3]; mean days of survival until neoplasm reached 2.0 g, i.v. qd x 1 at estimated MTD (Taxol 24 mg/kg, Taxotere 70 mg/kg, 0983 72.6 mg/kg), 5 mice/group (Taxotere 6), terminated Day 60
  MDS (n): 21.9 ± 5.5 (5) days
[3]; [8]
  Complete Response: 0
  Partial Respons: 0
  Stable Disease: 0
  Survivors: 0
  Toxic Deaths: 4
[3]; number of mice, i.v. qd x 1 at estimated MTD (Taxol 24 mg/kg, Taxotere 70 mg/kg, 0983 72.6 mg/kg), 5 mice/group (Taxotere 6)
  Toxic Deaths: 0
[3]; [9]
  Complete Response: 0
  Partial Respons: 0
  Stable Disease: 0
  Survivors: 1
[3]; Taxol i.p. qd x 5, 15 mg/kg daily, 5 mice
  Mean Score: 0.6 ± 0.6
[3]; i.v. qd x 1 at estimated MTD (Taxol 24 mg/kg, Taxotere 70 mg/kg, 0983 72.6 mg/kg), 5 mice/group (Taxotere 6)
  Mean Score: 1.8 ± 0.4
[4]; Taxol 36 mg/kg i.v., five animals
  survival extension compared to vehicle-treated animals: 10%
[4]; i.v. MTD in two half doses one hour apart, qd x 1, Taxol 36 mg/kg, 0503 72.1 mg/kg, ended Day 60
  MDS (n): 27.0 ± 4.6 (5) days
[4]; i.v. split dose qd x 1
  Complete Response: 0
  Stable Disease: 0
  antitumor activity: not active
[4]; [10]
  Survivors: 1
  Toxic Deaths: 0
[4]; tumor score 1 to 10 per mouse, group mean
  Mean Score: 2.7 ± 1.3
[5]; SKMES, 0687 228 mg/kg, 0503 73 mg/kg, Taxol 40 mg/kg
  antitumor activity: no statistically significant response
[5]; complete or partial responses among evaluable animals, mg/kg: Taxol 40, 0687 228, 0503 73
  % Total Response: 0%
[5]; mean days of survival until neoplasm reached 2.0 g, mg/kg: Taxol 40, 0687 228, 0503 73, 6 mice/group, terminated Day 60
  MDS (n): 13.2 ± 1.4 (6) days
[5]; number of mice, mg/kg: Taxol 40, 0687 228, 0503 73, 6 mice/group
  Toxic Deaths: 0
[5]; [11]
  Complete Response: 0
  Partial Response: 0
  Stable Disease: 0
  Survivors: 0
